# Measured values as given in patent EP2204398A1, “CA[…] DERIVATIVE AND USES OF THE SAME” (NanoCarrier Co., Ltd., priority 2008, dated 2009).
# Tests used:
# [1] = Test for blood kinetics in rat (CPT concentration in blood plasma by HPLC); format: in vivo, male Wister rat; details: tail vein, camptothecin in DMSO, administered in the same manner, n=1
# Protocol: In a sample vial, 50 mg of the complex obtained in Example 1 which was weighed precisely was placed, and 1 mL of purified water was added thereto, followed by suspending the polymer. The resulting suspension was stirred for one day and night, and sonicated using Biodisruptor (Nihonseiki Kaisha Ltd., High Power Unit) with ice cooling for 10 minutes, followed by filtration through a 0.22 µm filter (Millipore, MILLEX (registered trademark) GP PES) and recovery of the resulting filtrate. […]
# To 30 µL of the collected rat blood plasma, 100 µL of acetonitrile and 20 µL of 10 mM HCl were sequentially added, and the resulting mixture was stirred. […] The filtrate was filled in an HPLC sample vial, and the concentration of free CPT in the blood plasma was determined.
# The HPLC conditions were as followed. Unless otherwise specified, the HPLC analysis of CPT was carried out under the same conditions. • System: Waters Alliance System • Column: Tosoh TSK-gel ODS-80TM (Φ4.6 × 150 mm) (40°C) • Mobile phase: 25 mM ammonium formate buffer (pH 3.0)/acetonitrile=70/30 • Flow rate: 1 mL/min. • Detection: fluorescence (Ex: 370 nm, Em: 420 nm) Injection volume: 20 µL
# [2] = system: Human Prostate Cancer PC-3 Cells; assay: Test for pharmacological effect using human prostate cancer PC-3 cells - 1 (tumor volume); format: in vivo, male nude mice; details: CPT DMSO solution 7 mg/kg, tail vein, 3 times at intervals of 4 days, n=7
# Protocol: (§1) PC-3 cells (purchased from ATCC via Summit Pharmaceuticals International Corporation; which provision is also applied hereinafter) were cultured using RPMI1640 + 10% FBS medium under 5% CO2 at 37°C to allow their growth to attain the cell number required for transplantation. The cells were suspended in physiological saline and subcutaneously inoculated to the back of male nude mice [Blab nu/nu, 8 weeks old, Charles River Laboratories Japan] such that the dose of 3 × 10^6 cells/100 µL per mouse was attained. Thereafter, the nude mice were kept for 7 days, and when the tumor volume reached 83.3 t 6.2 mm^3 (average ± SE, wherein SE indicates standard error; which provision is also applied hereinafter), administration of drugs were started. A total of 3 times of administration through the tail vein at intervals of 4 days were scheduled, and changes in the tumor volume and body weight with time were measured for 3 groups (n=7), that is, (1) control (untreated); (2) the CPT DMSO solution 7 mg/kg; and (3) PEG-pAsp-CPT 3 mg/kg (the dose is based on the amount of camptothecin (mg/kg/injection)). The major diameter (a mm) and the minor diameter (b mm) of each tumor were measured using an electronic caliper (Mitutoyo Corporation), and the tumor volume was calculated according to the following equation.
# (§2) Tumor volume (mm^3) = a × b^2 /2 [formula] […]
# [3] = Changes in body weight in PC-3 tumor-bearing animals, test 1; format: in vivo, male nude mice; details: CPT DMSO solution 7 mg/kg, tail vein, 3 times at intervals of 4 days, n=7
# Protocol: as §1, §2
compound,measurement,setting,value
"CC[C@@]1(O)C(=O)OCc2c1cc1n(c2=O)Cc2cc3ccccc3nc2-1 [CPT solution, camptothecin]",blood concentration,[1],decreased rapidly
same,tumor growth inhibition effect in comparison with the control group,[2],hardly observed
same,body weight decrease at maximum,[3],≥ 10%
